Measured values reported in ChEMBL document CHEMBL3774307, “Synthesis, Characterization, and DNA Binding Profile of a Macrocyclic β-Sheet Analogue of ARC Protein” (ACS Med Chem Lett, 2015).
Active and inactive are the calls of the source. No cut-off for these calls is given here. Positions of bridges follow the written chain, without caps; N, C: chain ends. Non-standard residues stand in square brackets, D forms with d. Residues, ends and D or L forms follow the SMILES beside them. Chains are numbered I, II in the order given. Orn = NCCC[C@H](N)C(=O)O

Legend:
[1] = Binding affinity to 5'-ATGACTCAT-3' AP-1 dsDNA (unknown origin) by isothermal titration calorimetry
[2] = Binding affinity to 5'-ATGACGTCAT-3' ATF/CREB dsDNA (unknown origin) by isothermal titration calorimetry
[3] = Binding affinity to 5'-GCGAGCACAGCTTTTTGCTGTGCTCGC-3' dsDNA (unknown origin) by tryptophan fluorescence spectroscopic analysis
[4] = Binding affinity to 5'-GCGAGTAGAGCTTTTTGCTCTACTCGC-3' dsDNA (unknown origin) by ethidium bromide displacement assay
[5] = Binding affinity to 5'-GCGAGCACAGCTTTTTGCTGTGCTCGC-3' dsDNA (unknown origin) by ethidium bromide displacement assay
[6] = Binding affinity to 5'-GCGAGTAGAGCTTTTTGCTCTACTCGC-3' dsDNA (unknown origin) by tryptophan fluorescence spectroscopic analysis

SMILES | Kd [1] [µM] | Kd [2] [µM] | Activity [3] | Kd [4] [µM] | Activity [5] | Activity [6]
CC(=O)N[C@@H](CC(=O)O)C(=O)N1CCC[C@H]1C(=O)N[C@@H](C)C(=O)N[C@@H](C)C(=O)N[C@@H](CC(C)C)C(=O)N[C@@H](CCCCN)C(=O)N[C@@H](CCCNC(=N)N)C(=O)N[C@@H](C)C(=O)N[C@@H](CCCNC(=N)N)C(=O)N[C@@H](CC(N)=O)C(=O)N[C@H](C(=O)N[C@@H](CCC(=O)O)C(=O)N[C@@H](C)C(=O)N[C@@H](C)C(=O)N[C@@H](CCCNC(=N)N)C(=O)N[C@@H](CCCNC(=N)N)C(=O)N[C@@H](CO)C(=O)N[C@@H](CCCNC(=N)N)C(=O)N[C@@H](C)C(=O)N[C@@H](CCCNC(=N)N)C(=O)N[C@@H](CCCCN)C(=O)N[C@@H](CC(C)C)C(=O)N[C@@H](CCC(N)=O)C(=O)N[C@@H](CCCNC(=N)N)C(=O)N[C@@H](CC(C)C)C(=O)N[C@@H](CCCCN)C(=O)N[C@@H](CCC(N)=O)C(N)=O)[C@@H](C)O (Ac-DPAALKRARNTEAARRSRARKLQRLKQ-NH2) | 20 | 20 | – | – | – | –
CC(C)C[C@@H]1NC(=O)[C@H](CC(N)=O)NC(=O)[C@H](Cc2ccccc2)NC(=O)[C@H](CCC(N)=O)NC(=O)[C@H](CCCCN)NC(=O)[C@@H](N)CCCNC(=O)[C@H](Cc2c[nH]c3ccccc23)NC(=O)[C@H](CCCNC(=N)N)NC(=O)[C@H](CC(C)C)NC(=O)[C@H](CC(N)=O)NC(=O)[C@H](Cc2ccccc2)NC(=O)[C@H](CCC(N)=O)NC(=O)[C@H](CCCCN)NC(=O)[C@@H](N)CCCNC(=O)[C@H](Cc2c[nH]c3ccccc23)NC(=O)[C@H](CCCNC(=N)N)NC1=O (I: H-[Orn]KQFNLRW / II: H-[Orn]KQFNLRW; amide I:1-II:C, I:C-II:1) | – | – | Active | 2.1 | Active | Active
